Assay results taken from the NIST ThermoML archive (doi:10.1016/j.jct.2012.09.028).

Conditions: 101.33 kPa, Crystal, Vacuum adiabatic calorimetry

O=C[C@H](O)[C@@H](O)[C@H](O)CO [D-xylose]
Conditions	molar entropy [J/K/mol]
0.5 K	0.0002783
1 K	0.0007579
1.5 K	0.001652
2 K	0.003197
2.5 K	0.005661
3 K	0.009356
3.5 K	0.01464
4 K	0.02194
4.5 K	0.0317
5 K	0.04448
5.5 K	0.06082
6 K	0.08137
6.5 K	0.1068
7 K	0.1377
7.5 K	0.1749
8 K	0.219
8.5 K	0.2706
9 K	0.3303
9.5 K	0.3987
10 K	0.4763
11 K	0.6598
12 K	0.8803
13 K	1.138
14 K	1.432
15 K	1.761
16 K	2.122
17 K	2.515
18 K	2.935
19 K	3.383
20 K	3.854
25 K	6.505
30 K	9.489
35 K	12.65
40 K	15.88
45 K	19.14
50 K	22.41
55 K	25.66
60 K	28.89
65 K	32.12
70 K	35.35
75 K	38.56
80 K	41.77
85 K	44.96
90 K	48.15
95 K	51.33
100 K	54.5
110 K	60.81
120 K	67.1
130 K	73.34
140 K	79.56
150 K	85.75
160 K	91.91
170 K	98.05
180 K	104.16
190 K	110.25
200 K	116.32
210 K	122.38
220 K	128.42
230 K	134.45
240 K	140.47
250 K	146.47
260 K	152.47
270 K	158.46
273.15 K	160.35
280 K	164.44
290 K	170.42
298.15 K	175.29
300 K	176.4
